Read-outs that look alike come from different tables or passages of the source.
Legend:
[1] = design: method as in 2 sources, one per row (each row's own in cited_ref): ref Rowland, 1990; Rybak, 2006; Cavalcanti et al., 2010 ||| ref EMA., 2022; conditions: cited from earlier work; for half-life: ref Rowland, 1990, Rybak, 2006, Cavalcanti et al., 2010
[2] = design: method as in Rowland, 1990; Rybak, 2006; Cavalcanti et al., 2010; conditions: ref Rowland, 1990, Rybak, 2006, Cavalcanti et al., 2010, cited from earlier work
[3] = design: species or system human; conditions: in vivo
Procedure: This was a prospective, open-label PPK study conducted in the ICU department of Peking University First Hospital. […] Pregnant and lactating patients, patients with special sites (endocardium, bone, joints, etc.) infections, or those who received any special treatment that may affect drug elimination, such as renal replacement therapy, were excluded.
The infusion duration was 30–60 min. […] Additionally, in 1/3 patients, 2 mL more blood sample was collected immediately after the 5th infusion; in the other 1/3 patients, 2 mL more blood sample was collected 1 h after the 5th dose, and in the remaining 1/3 patients, 2 mL more concentration sample was taken 1 h before the 6th dose. All blood samples were collected in blood collection tubes anticoagulated by ethylene diamine tetra acetic acid (EDTA) for concentration determination.
Blood samples were centrifuged within 12 h to obtain plasma. Then, 0.4 mL plasma samples were added with 0.05 mL internal standard solution (piperacillin sodium 0.15 mg/mL). Consequently, 0.6 mL acetonitrile was added, and the sample was vigorously shaken for 1 min and centrifuged at 12,000 r/min for 5 min. Then, 0.9 mL of the supernatant was transferred to a centrifuge tube, and 0.4 mL of dichloromethane was added. The solution was vigorously shaken for 1 min and centrifuged at 12,000 r/min for 5 min. The supernatant was then transferred into a vial for detection. HPLC detection conditions were as follows: Waters Symmetry C18 column (250 × 4.6 mm, 5 μm); mobile phase: 0.01 mol/L NaH2PO4 (pH = 3.3)-acetonitrile (75:25), isocratic elution; detection wavelength: 240 nm; flow rate: 1.0 mL/min; injection volume: 0.020 mL; column temperature: 35 °C ([Dong et al., 2011]). […] The above analytical method has passed the methodological verification. […] In terms of sensitivity, the signal-to-noise ratio (S/N) of the LOQ was >10. The relative standard deviations (RSDs) of the intra-day and inter-day precision of simulated plasma samples with high, medium and low concentrations were all less than 10%, and the intra-day and inter-day accuracies were 91.01%–101.13% and 92.98%–98.99%, respectively. […] The stability of simulated plasma samples with high, medium and low concentrations was good after being placed at room temperature for 4 h, frozen and thawed 3 times and stored at −80°C for 60 days, respectively, with the RSDs of tested samples all less than 10%.
The model was established in a stepwise manner. In the basic model screening process, one-, two- and three-compartment models with additive, proportional and mixed error were tested respectively, and the basic model was selected by the objective function value (OFV) and visual diagnostic plots ([Gao et al., 2020]). The model parameters were assumed to follow a log-normal distribution, and the inter-individual variability for each structural parameter was modeled using the following equation: Pi=PTV×Exp ηi (1) where P i represents parameters for the i th individual, P TV are the typical values of the parameters, and η i are random variables with zero mean and variance of ω^2.
Demographic and clinical characteristics that were considered plausible for affecting teicoplanin PK were tested as covariates, including sex, age, height, weight, BMI, ALT, AST, TBIL, DBIL, TP, ALB, WBC, Scr, GFR, and BUN. Individual PK estimates obtained from the selected structural model were firstly plotted against covariate values to assess relationships ([Byrne et al., 2017]). When a relationship between the covariate and the PK parameter was observed, the covariate was tested for inclusion into the PPK model. […]

Row | Molecule | half-life ([1]; vancomycin, adults with normal renal function) | plasma protein binding rate ([2]; vancomycin) | Q, Estimate (RSE%) [3] | Q, bootstrap median (95% PI) [3] | V1, Estimate (RSE%) [3] | V1, bootstrap median (95% PI) [3] | V2, Estimate (RSE%) [3] | V2, bootstrap median (95% PI) [3] | θCL_GFR, Estimate (RSE%) [3] | θCL_GFR, bootstrap median (95% PI) [3] | CL, Estimate (RSE%) ([3]; iv) | renal clearance ([1]; ref EMA., 2022) | total clearance ([1]; ref EMA., 2022) | half-life ([1]; teicoplanin) | dose administered recovered in feces (via bile excretion) ([1]; within 8 days after administration, ref EMA., 2022) | unchanged teicoplanin excreted by the urinary route ([1]; within 16 days, ref EMA., 2022) | plasma protein binding rate ([2]; teicoplanin)
1 | CN[C@H](CC(C)C)C(=O)N[C@H]1C(=O)N[C@@H](CC(N)=O)C(=O)N[C@H]2C(=O)N[C@H]3C(=O)N[C@H](C(=O)N[C@H](C(=O)O)c4cc(O)cc(O)c4-c4cc3ccc4O)[C@H](O)c3ccc(c(Cl)c3)Oc3cc2cc(c3O[C@@H]2O[C@H](CO)[C@@H](O)[C@H](O)[C@H]2O[C@H]2C[C@](C)(N)[C@H](O)[C@H](C)O2)Oc2ccc(cc2Cl)[C@H]1O [vancomycin] | 6 to 12 h | 30%–55% | – | – | – | – | – | – | – | – | – | – | – | – | – | – | –
2 | teicoplanin | – | – | 3.12 (10.9) L/h | 3.14 (2.62–3.90) L/h | 20.1 (12.9) L | 19.8 (16.1–26.2) L | 101 (12.7) L | 98.2 (77.5–122.2) L | 0.437 (23.8) | 0.441 (0.234–0.740) | 1.03 (16.6) L/h | 0.13 to 0.2 mL/min/kg | 0.167 to 0.233 mL/min/kg | 100 to 170 h | 2.7% | 80% | about 90%

Source: PMC10175687 (Frontiers in Pharmacology, 2023)
